From PMC10800876, “Evaluation of proline-rich antimicrobial peptides as potential lead structures for novel antimycotics against Cryptococcus neoformans” (Frontiers in Microbiology, 2024)
≈ marks a conversion by molar mass, not a printed value. Where two headings read alike, the source gives them in different places. Non-standard residues stand in square brackets, D forms with d. Residues, ends and D or L forms follow the SMILES beside them. Ac6c = NC1(C(=O)O)CCCCC1

Tests used:
[1] = tested on: C. neoformans H99 (serotype A)
[2] = tested on: C. neoformans KN99α (serotype A, mating type MATα)
[3] = tested on: C. neoformans 1841 (serotype D)
C. neoformans 1841 [4] = experiment: Scanning electron microscopy, damaged cells; assay type: cell-based, Cryptococcus neoformans; settings: 200 μmol/L, 10^8 CFU/mL, 3 h, 30°C
Description: Overnight cultures of C. neoformans 1841 were prepared as described and adjusted with 50% SAB in phosphate buffer to reach 1 × 10^8 CFU/mL. Aqueous peptide solutions (20 μL) were added to the cell suspension (80 μL) to give a final peptide concentration of 200 μmol/L. Samples were incubated at 30°C on an orbital shaker (750 rpm) for 3 h. Samples were centrifuged (2,000 × g, 10 min, 4°C, Microfuge 22R, Beckmann Coulter), cell pellets were washed with ice-cold phosphate-buffered saline (PBS, 100 μL) and centrifuged again. Cell pellets were re-suspended in PBS (25 μL) and adhered overnight in humid atmosphere to glass coverslips (Borosilicate Glass, VWR International GmbH) previously coated with 0.001% poly-L-lysine (in case of Critical-Point Drying). Cells were fixed (2% glutaraldehyde, 2% paraformaldehyde, in PBS) for 60 min and afterwards stained with 1% OsO4 in PBS for 60 min. The cells were gradually dehydrated in ethanol series (30, 50, 70, 85, 90, 96% (once), and 100% (thrice) for 10 min. The coverslips were critical-point-dried (Baltec CPD 030, BAL-TEC GmbH, Schalksmühle, Germany) or air-dried after incubation with HMDS (3 min, RT) and sputter coated with 20 nm gold/palladium (Baltec MED 020, BAL-TEC GmbH). Cells were visualized using the SEM secondary electron detector (Zeiss EVO LS 15 LaB6, Carl Zeiss Microscopy Deutschland GmbH).
GraphPad Prism 10.0.3 software was used for statistical analysis of the recorded data. A Dunnett’s multiple comparisons test (Ordinary-one-way ANOVA) was performed.

C. neoformans H99 = experiment: Antifungal activity assay (CFU on SAB agar); assay type: cell-based, Cryptococcus neoformans; settings: treatment 3 h, 30 °C, mean ± SD, n = 4; for cell count C. neoformans H99, 24 h: CFU counted after 24 h; for cell count C. neoformans H99, 48 h: CFU counted after 48 h
[5] = tested on: C. neoformans strains 1841, H99, and KN99α; experiment: Broth microdilution assay (MIC); assay type: cell-based, Cryptococcus neoformans
C. neoformans KN99α = experiment: Antifungal activity assay (CFU on SAB agar); assay type: cell-based, Cryptococcus neoformans; settings: treatment 3 h, 30 °C, mean ± SD, n = 4; for cell count C. neoformans KN99α, 24 h: CFU counted after 24 h; for cell count C. neoformans KN99α, 48 h: CFU counted after 48 h
C. neoformans 1841 [6] = experiment: Antifungal activity assay (CFU on SAB agar); assay type: cell-based, Cryptococcus neoformans; settings: treatment 3 h, 30 °C, mean ± SD, n = 4; for cell count C. neoformans 1841, 24 h: CFU counted after 24 h; for cell count C. neoformans 1841, 48 h: CFU counted after 48 h
[7] = tested on: C. neoformans strains 1841, H99, and KN99α; experiment: Antifungal activity assay (CFU); assay type: cell-based, Cryptococcus neoformans; settings: only small colonies appearing after more than 24 h
C. neoformans 1841 [8] = experiment: Time-kill assay; assay type: cell-based, Cryptococcus neoformans; settings: 2.5 μmol/L, 30°C, up to 24 h
Description: The kinetic effects of the antifungal activity were determined by diluting overnight cultures to 5 × 10^4 CFU/mL with 50% SAB in phosphate buffer. Aqueous peptide solutions (20 μL) were added to the cell suspension (80 μL) to give a final peptide concentration of 2.5 μmol/L. Samples were incubated at 30°C on an orbital shaker (750 rpm, Titramax 1,000, Heidolph Instruments GmbH & Co. KG) for 24 h. Before incubation (0 min) and after 45 min, 90 min, 3 h, 6 h, and 24 h incubation, aliquots (10 μL) of samples were taken and diluted with phosphate buffer (10 mmol/L, pH 7.5) to observe countable cell colonies. Aliquots (100 μL) of the diluted cell suspensions were plated on SAB agar plates. Plates were incubated at 30°C and colonies were counted after 24 h.

[9] = KN99α (serotype A, mating type MATα, 24 h)
[10] = KN99α (serotype A, mating type MATα, 48 h)
[11] = 1841 (serotype D, 24 h, pH 7.5)
[12] = 1841 (serotype D, 48 h, pH 7.5)
[13] = broth microdilution, 50% SAB in phosphate buffer, 30°C, read after 24 h, n = 6
[14] = broth microdilution, 50% SAB in phosphate buffer, 30°C, read after 48 h, n = 6

Row | Compound | MIC (μmol/L) H99 24 h ([1]; H99 (serotype A, 24 h)) [µmol/L] | MIC (μmol/L) H99 48 h ([1]; H99 (serotype A, 48 h)) [µmol/L] | MIC (μmol/L) KN99α 24 h [2, 9] [µmol/L] | MIC (μmol/L) KN99α 48 h [2, 10] [µmol/L] | MIC (μmol/L) 1841 24 h [3, 11] [µmol/L] | MIC (μmol/L) 1841 48 h [3, 12] [µmol/L] | damaged cells in SEM (C. neoformans 1841 [4]) | cell count C. neoformans H99, 24 h (C. neoformans H99; 0.25 µmol/L) | cell count C. neoformans H99, 48 h (C. neoformans H99; 0.25 µmol/L) | cell count C. neoformans H99, 24 h (C. neoformans H99; 2.5 µmol/L) | cell count C. neoformans H99, 48 h (C. neoformans H99; 2.5 µmol/L) | cell count C. neoformans H99, 24 h (C. neoformans H99; 25 µmol/L) | cell count C. neoformans H99, 48 h (C. neoformans H99; 25 µmol/L) | cell count C. neoformans KN99α, 24 h (C. neoformans KN99α; 0.25 µmol/L) | cell count C. neoformans KN99α, 48 h (C. neoformans KN99α; 0.25 µmol/L) | cell count C. neoformans KN99α, 24 h (C. neoformans KN99α; 2.5 µmol/L) | cell count C. neoformans KN99α, 48 h (C. neoformans KN99α; 2.5 µmol/L) | cell count C. neoformans KN99α, 24 h (C. neoformans KN99α; 25 µmol/L) | cell count C. neoformans KN99α, 48 h (C. neoformans KN99α; 25 µmol/L) | cell count C. neoformans 1841, 24 h (C. neoformans 1841 [6]; 0.25 µmol/L) | other results
1 | CC(C)C[C@H](NC(=O)[C@@H]1CCCN1C(=O)[C@@H]1CCCN1C(=O)[C@H](CCCNC(=N)N)NC(=O)[C@H](Cc1ccc(O)cc1)NC(=O)[C@@H]1CCCN1C(=O)[C@@H]1CCCN1C(=O)[C@H](CCCNC(=N)N)NC(=O)C1(NC(=O)[C@H](CCCNC(=N)N)NC(=O)[C@@H]2CCCN2C(=O)[C@H](CCCCN)NC(=O)[C@@H]2CCCN2C(=O)[C@H](CCCNC(=N)N)NC(=O)[C@@H]2CCCN2C(=O)[C@H](CCCNC(=N)N)NC(=O)[C@@H](NC(=O)[C@H](CCCNC(=N)N)NC(=O)[C@@H](N)CC(=O)O)C(C)C)CCCCC1)C(=O)N1CCC[C@H]1C(N)=O [Chex1Arg20 scr] (H-DRVRPRPKPR[Ac6c]RPPYRPPLP-NH2; N-terminus assumed) | 26 (≈ 64.4 µg/mL) | 52 (≈ 129 µg/mL) | 26 (≈ 64.4 µg/mL) | 52 (≈ 129 µg/mL) | 13 to 26 | 26 to 52 | slightly lower percentage of damaged cells than Chex1Arg20 | – | – | – | – | – | – | – | – | – | – | – | – | – | MIC (mg/L) 1841 24 h ([3]; 1841 (serotype D, 24 h)): 32 to 64 mg/L; MIC (mg/L) 1841 48 h ([3]; 1841 (serotype D, 48 h)): 64 to 128 mg/L
2 | CC(C)C[C@H](NC(=O)[C@H](Cc1ccc(O)cc1)NC(=O)[C@@H]1CCCN1C(=O)[C@H](CCCNC(=N)N)NC(=O)[C@@H]1CCCN1C(=O)[C@H](CCCCN)NC(=O)[C@H](CC(=O)O)NC(=O)[C@@H]1CCCN1C(=O)[C@H](CCCNC(=N)N)NC(=O)C1(N)CCCCC1)C(=O)N1CCC[C@H]1C(=O)N[C@@H](CCCNC(=N)N)C(=O)N1CCC[C@H]1C(=O)N[C@@H](CCCNC(=N)N)C(=O)N1CCC[C@H]1C(=O)N1CCC[C@H]1C(=O)N[C@@H](CCCNC(=N)N)C(=O)N1CCC[C@H]1C(=O)N[C@H](C(=O)N[C@@H](CCCNC(=N)N)C(N)=O)C(C)C [Chex1Arg20] (H-[Ac6c]RPDKPRPYLPRPRPPRPVR-NH2; N-terminus assumed) | 1.6 (≈ 3.96 µg/mL) | 1.6 to 3.2 | 1.6 (≈ 3.96 µg/mL) | 3.2 (≈ 7.92 µg/mL) | 1.6 (≈ 3.96 µg/mL) | 3.2 (≈ 7.92 µg/mL) | only a small portion showed deep indentations | 1.4 ± 0.7 x 10^4 CFU/mL | 1.6 ± 0.8 x 10^4 CFU/mL | 1.5 ± 1.0 x 10^4 CFU/mL | 2.5 ± 0.8 x 10^4 CFU/mL | 0.0 ± 0.0 x 10^4 CFU/mL | 0.8 ± 0.2 x 10^4 CFU/mL | 2.7 ± 0.4 x 10^4 CFU/mL | 2.7 ± 0.4 x 10^4 CFU/mL | 1.0 ± 0.6 x 10^4 CFU/mL | 1.8 ± 1.2 x 10^4 CFU/mL | 0.5 ± 0.8 x 10^4 CFU/mL | 0.8 ± 0.9 x 10^4 CFU/mL | 2.7 ± 0.0 x 10^4 CFU/mL | MIC (mg/L) H99 48 h ([1]; H99 (serotype A, 48 h)): 4 to 8 mg/L; MIC [5]: 4 to 16 µg/mL; cell count C. neoformans 1841, 48 h (C. neoformans 1841 [6]; 0.25 µmol/L): 2.8 ± 0.1 x 10^4 CFU/mL; cell count C. neoformans 1841, 24 h (C. neoformans 1841 [6]; 2.5 µmol/L): 0.0 ± 0.0 x 10^4 CFU/mL; cell count C. neoformans 1841, 48 h (C. neoformans 1841 [6]; 2.5 µmol/L): 0.5 ± 0.1 x 10^4 CFU/mL; cell count C. neoformans 1841, 24 h (C. neoformans 1841 [6]; 25 µmol/L): 0.0 ± 0.0 x 10^4 CFU/mL; cell count C. neoformans 1841, 48 h (C. neoformans 1841 [6]; 25 µmol/L): 0.0 ± 0.0 x 10^4 CFU/mL; colony formation on agar [7]: delayed colony formation
3 | gu-OIOIORPVYOPRPRPPHPRL-OH [Api795, optimized apidaecin analog] | – | – | – | – | – | – | – | 3.3 ± 0.3 x 10^4 CFU/mL | 3.6 ± 0.6 x 10^4 CFU/mL | 1.4 ± 0.4 x 10^4 CFU/mL | 2.0 ± 0.2 x 10^4 CFU/mL | 0.1 ± 0.0 x 10^4 CFU/mL | 0.5 ± 0.2 x 10^4 CFU/mL | 2.9 ± 0.3 x 10^4 CFU/mL | 2.9 ± 0.4 x 10^4 CFU/mL | 1.7 ± 0.7 x 10^4 CFU/mL | 1.9 ± 0.8 x 10^4 CFU/mL | 0.1 ± 0.1 x 10^4 CFU/mL | 0.4 ± 0.1 x 10^4 CFU/mL | 1.4 ± 0.6 x 10^4 CFU/mL | MIC (μmol/L) H99 24 h [1, 13]: 3.2 µmol/L; MIC (μmol/L) H99 48 h [1, 14]: 3.2 µmol/L; MIC (mg/L) KN99α 24 h [2, 13]: 4 to 8 mg/L; MIC (μmol/L) KN99α 24 h [2, 13]: 1.6 to 3.2 µmol/L; MIC (μmol/L) KN99α 48 h [2, 14]: 3.2 µmol/L; time-dependent antifungal effect (C. neoformans 1841 [8]): delayed antifungal effect; cell count C. neoformans 1841, 48 h (C. neoformans 1841 [6]; 0.25 µmol/L): 1.4 ± 0.6 x 10^4 CFU/mL; cell count C. neoformans 1841, 24 h (C. neoformans 1841 [6]; 2.5 µmol/L): 2.1 ± 0.1 x 10^4 CFU/mL; cell count C. neoformans 1841, 48 h (C. neoformans 1841 [6]; 2.5 µmol/L): 2.1 ± 0.1 x 10^4 CFU/mL; cell count C. neoformans 1841, 24 h (C. neoformans 1841 [6]; 25 µmol/L): 0.2 ± 0.0 x 10^4 CFU/mL; cell count C. neoformans 1841, 48 h (C. neoformans 1841 [6]; 25 µmol/L): 0.2 ± 0.0 x 10^4 CFU/mL; MIC (μmol/L) 1841 24 h ([3]; broth microdilution, 50% SAB in phosphate buffer pH 7.5, 5 × 10^4 CFU/mL, 30°C, read after 24 h, mean of six replicates (n = 6)): 1.6 µmol/L; MIC (μmol/L) 1841 48 h ([3]; broth microdilution, 50% SAB in phosphate buffer pH 7.5, 5 × 10^4 CFU/mL, 30°C, read after 48 h, n = 6): 3.2 µmol/L; colony formation on agar [7]: delayed colony formation
